Experimental data reported in publication PMC12858405, “Ideal efficacy photoswitching for chromocontrol of TRPC4/5 channel functions in live tissues” (Nature Chemical Biology, 2026).

Experiment: Stability in DTT-containing buffers (HPLC analysis)
Assay type: physicochemical
Conditions: confirmed by HPLC analysis
Source text: Müller, Niemeyer, et al., Schaefer & Thorn-Seshold 2025: Ideal Efficacy Photoswitching of TRPC4/5 in Tissue 1.4 Supplementary Note 4: Structural Biology and TRP Selectivity
We prepared and acquired TRPC5:E/Z-AzHC samples in one lab, and TRPC4:E/Z-AzPico independently in another, which was useful for several plausibility checks. (1) There are additional lipid densities in the pockets that are present in both TRPC4 and TRPC5, and the changes to the lipid densities in the EM maps between E and Z isomers are similar in TRPC4 and TRPC5 as well: so these changes are not dependent on protein, nature of amphipol used, or lab in which the data were obtained/processed, but are rather inherent features of the system. (2) The positions of the distal rings which are much less-well-resolved than the rest of the ligand, were independently best aligned for the E and Z isomers, and in each case found to be Z-buried vs. E-projected, which gives more confidence in this structure-based analysis. (3) Identical deleterious effects of DTT were found in each lab, and removing it removed those problems.
1.4.1 Detailed Commentary: hTRPC5:E/Z-AzHC […]
We determined high-resolution structures of hTRPC5:(E)-AzHC (2.60 Å) and hTRPC5:(Z)-AzHC (2.90 Å) without applying symmetry (Fig. 3; Supplementary Fig. 4-5 and 15-18; Supplementary […]

Stability in DTT-containing buffers: degrades
SMILES: Cn1c(=O)n(CCCO)c(=O)c2c1nc(Oc1ccc(N=Nc3ccccc3)c(Cl)c1)n2Cc1ccc(Cl)cc1 [AzHC]
